The structures appear in SMILES notation. pIC50: −log10 of the molar value. Like-named read-outs stand apart in the source and are kept apart here. Bounds are passed on as bounds.

One data set addresses T1, hSERT (Homo sapiens, UniProt P31645).
T1 construct: expressed in transfected cells; host or cells: CHO (hSERT-CHO)
Briefly: SERT uptake SPA in hSERT-CHO cells. It counts as cell-based. The note with it: for IC50: read-out: SERT Uptake SPA (pIC50) (converted); for SERT/DAT Uptake Ratio: calculated as 1/SERT IC50:1/DAT IC50.

A short description of data set [1]: Plasma protein binding by equilibrium dialysis, human plasma. The data set is classed as in vitro ADME. The note with it: for Human Plasma (Fu %): fraction unbound, 0.5 μM; for fraction unbound at 5 h, 0.5 μM: human, plasma, pH 7.4, read-out: Human Plasma (Fu %). Here is the method: Methods: Plasma protein binding and blood tissue binding of test items (0.5 μM) was determined using biological samples from male Sprague Dawley (SD) rats and humans. […] Dexamethasone was used as a control compound for lung tissue binding. Various biological samples were spiked with test compounds according to the methods that follow.
Preparation of plasma or blood samples: An appropriate amount of test compound was dissolved in DMSO to yield a 10 mM solution. Further dilutions, to obtain 50 μM working solutions (WS), were then prepared using 50% acetonitrile in Milli-Q water. These 100×WS were used to spike plasma or blood to obtain a final concentration of 0.5 μM. From this initial spiking solution, control samples (n=3), referred to as T=0, were immediately extracted and used to calculate the recovery of the test item.
An equilibrium dialysis method was performed to determine protein binding in the various biological samples described herein. Materials were prepared and methods were in accordance with the following procedures.
Membranes were prepared for use in the equilibrium dialysis experiment. by soaking in deionized water for at least 60 minutes. After this period, 20% of pure ethanol was added, and the membranes were left in this solution for at least 20 minutes. The membranes were then rinsed in Milli-Q water prior to use.
To initiate the experiment, 150 μL of test item-free buffer (isotonic phosphate buffer for plasma and blood, artificial CSF buffer for brain or HBSS buffer for lung) was dispensed on one half-well of a 96-well dialyzer apparatus (HTDialysis LLC), and 150 μL of spiked matrix (plasma, blood, brain or lung) was loaded on the other half-well. Alternative volumes may be used according to the operating instructions of HTDialysis.
Dialysis buffer was prepared by dissolving Na2HPO4 8.69 g, KH2PO4 1.90 g, and NaCl 4.11 g in […] of MilliQ water, and adjusting the pH to 7.4 with H3PO4. At the end of the equilibration period (device is sealed and incubated under shaking for 5 hours at 37° C.), 50 μL of dialysed matrix will be added to 50 μL of corresponding test item free dialysed buffer, and vice versa for buffer, such that the volume of buffer to matrix will be the same. Samples were extracted by protein precipitation with 300 μL of acetonitrile containing rolipram (for positive ionization mode) or diclofenac (for negative ionization mode) as internal standard and centrifuged for 10 minutes at 2800 rpm. Supernatants were collected (100 μL), diluted with 18% ACN in Milli Q water (200 μL).
Samples were then injected onto an HPLC MS/MS or UPLC MS/MS system. In order to control the integrity of the membrane after the dialysis process, the presence of protein was assessed in the buffer compartment. 5 μL of dialysed buffer will be added with 250 μL of Bio-Rad protein assay reagent (Bio-Rad) diluted 1:5 with Milli-Q water. A change in color from brown to a brilliant blue indicates protein contamination. Contaminated samples were excluded from all calculations.
Samples were analyzed in a LC-MS/MS system using an analytical method to monitor the compound to internal standard peak area ratios as representative of the compound concentrations. Alternatively, samples were analyzed by RapidFire.
Protein binding in plasma, blood, brain, and lung tissue samples were determined with the following formula: Afu=Buffer/x, wherein “x” may be plasma, blood, brain, or lung, and “Afu” is the apparent fraction unbound, and the other variables refer to the analyte/internal standard ratio determined in their specific compartment (buffer, plasma, blood, brain homogenate, and lung homogenate); Fucr-(1/D)/[(1/Afu)-1+(1/D)], wherein fucr is the fraction unbound corrected, D is the matrix dilution factor (D=1 for plasma, 2 for blood, 3 for brain, 7 for lung). % Binding=(1−fucr)×100 and % Unbound=100—% Bound. See, e.g., Kalvass et al., Drug Metab Dispos., 2018; 46(4):458-469. […]

Where [2] appears, read: [3H]-serotonin uptake, hSERT-CHO cells.

T1 sequence (P31645 whole entry): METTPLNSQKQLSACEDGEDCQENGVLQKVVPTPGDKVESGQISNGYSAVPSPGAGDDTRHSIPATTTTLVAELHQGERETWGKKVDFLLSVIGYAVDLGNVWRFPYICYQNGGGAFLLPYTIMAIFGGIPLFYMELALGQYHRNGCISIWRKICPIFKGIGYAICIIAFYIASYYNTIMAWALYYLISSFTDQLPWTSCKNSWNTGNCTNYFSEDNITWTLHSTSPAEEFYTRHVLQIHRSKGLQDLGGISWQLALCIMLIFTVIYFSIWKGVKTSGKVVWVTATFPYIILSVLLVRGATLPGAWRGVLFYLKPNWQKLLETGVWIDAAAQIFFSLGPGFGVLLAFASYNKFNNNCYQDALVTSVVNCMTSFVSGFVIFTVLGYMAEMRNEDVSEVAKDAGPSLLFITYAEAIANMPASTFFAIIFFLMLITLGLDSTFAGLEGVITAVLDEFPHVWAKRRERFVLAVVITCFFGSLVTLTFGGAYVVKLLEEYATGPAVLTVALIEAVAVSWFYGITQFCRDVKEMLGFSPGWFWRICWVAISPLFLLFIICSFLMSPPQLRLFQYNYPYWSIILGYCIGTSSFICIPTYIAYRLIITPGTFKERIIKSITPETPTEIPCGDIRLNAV
Procedure for hSERT: Briefly, on experiment days, hDAT-CHO cells were detached using Versene and added at a density of approximately 300,000 cells/mL to the SPA Mixture, which contains the following components in Assay Buffer (20 mM HEPES, 145 mM NaCl, 5 mM KCl, 2 mM CaCl2), 1 mM MgCl2, 5.5 mM glucose, 0.01% Pluronic F127, pH 7.3): 0.75 mg/mL SPA Imaging beads (RPNQ0001, PerkinElmer), 10 μM pargyline and 80 nM of [3H]-dopamine (NET673, PerkinEImer). The SPA Mixture was added 20 μL/well to 384 well plates containing 0.1 μL/well of test compound in neat DMSO (11 points of 1:5 serial dilution, 0.5% DMSO final) or 0.1 μL of DMSO (total uptake) or 0.1 μL of the standard inhibitor indatraline (at 1 μM final concentration, as nonspecific uptake). Plates were sealed with a Top-seal A and read using a Microbeta counter (PerkinElmer) after 45 minutes of incubation at room temperature. […] The SPA Mixture was added 20 μL/well to 384 well plates containing 0.1 μL/well of test compound in neat DMSO (11 points of 1:5 serial dilution, 0.5% DMSO final), 0.1 μL of DMSO (total uptake), or 0.1 μL of the standard inhibitor indatraline (1 μM, nonspecific uptake). Plates were sealed with a Top-seal A and read using a Microbeta counter (PerkinElmer) after 120 minutes of incubation at room temperature.
For both tests, the raw experimental data (cpm) were elaborated for the determination of pIC50/IC50 values as % inhibition of specific uptake. Concentration-response curves of MDMA, MDDMA, citalopram and GBR-12909 were used as internal standards in all experiments, and the signal window was monitored in each plate performing Z′ calculations, as described in Zhang et al., J Biomol Screen.

In the case of `COC(=O)c1ccc2c(c1)CC(N)C2` (stereo not shown) [CMP-405, 2-aminoindane-5-methylcarboxylate], the IC50 on hSERT (setting [2]) is 7.94 µM. The “Human Plasma (Fu %)” value in data set [1] is “high binding in plasma specimens and Low”.

On to `COC(=O)c1cc2c(cc1OC)CC(N)C2` (stereo not shown) [CMP-401], for which the IC50 at hSERT (setting [2]) was 3.98 µM. In addition, the “SERT/DAT Uptake Ratio” value at hSERT was 22. In data set [1], the “Human Plasma (Fu %)” value is reported as more than 50% and the fraction unbound at 5 h, 0.5 μM is more than 0.5.

With `COc1ccc2c(c1)CC(N)C2` (stereo not shown) [MEAI, 5-methoxy-2-aminoindane], at hSERT, the pIC50 (in general, the negative decadic logarithm of the IC50, by convention in mol/L) was 5.40 and the “SERT/DAT Uptake Ratio” value is listed as 9. The fraction unbound at 5 h, 0.5 μM in data set [1] is more than 0.5.

As for `COc1cc2c(cc1C)CC(N)C2` (stereo not shown) [MMAI, 5-methoxy-6-methyl-2-aminoindane], at hSERT, the pIC50 was 6.00 and the “SERT/DAT Uptake Ratio” value was 52. In addition, the fraction unbound at 5 h, 0.5 μM in data set [1] was more than 0.5.

In the case of `COC(=O)COc1ccc2c(c1)CC(N)C2` (stereo not shown) [CMP-402], the IC50 on hSERT (setting [2]) was 63.1 µM. The “SERT/DAT Uptake Ratio” value on hSERT is reported as 1.4. In data set [1], the “Human Plasma (Fu %)” value is more than 50% and the fraction unbound at 5 h, 0.5 μM is more than 0.5.

`CNC(C)Cc1ccc2c(c1)OCO2` (stereo not shown) [MDMA]: the “SERT Uptake SPA (pIC50)” value on hSERT (setting [2]) was 6.0. Also, the “SERT/DAT Uptake Ratio” value at hSERT was 2.1. Moreover, in data set [1], the “Human Plasma (Fu %)” value was more than 50%.
